Results from ChEMBL document CHEMBL3044631, “Synthesis of 2-[4,5-dimethyl-1-(phenylamino)-1H-imidazol-2-ylthio]-N-(thiazole-2-yl)acetamide derivatives and their anticancer activities” (2013).

Columns and labels:
Assay type in all cases: functional
A498 = experiment: Anticancer activity against Homo sapiens (human) A498 cells after 48 hr by SRB assay; settings: A498, 48 h
Malme-3M [1] = experiment: Anticancer activity against Homo sapiens (human) MALME-3M cells after 48 hr by SRB assay
K562 [2] = experiment: Anticancer activity against Homo sapiens (human) K562 cells after 48 hr by SRB assay; settings: K562, 48 h
HCT-116 [3] = experiment: Anticancer activity against Homo sapiens (human) HCT116 cells after 48 hr by SRB assay; settings: HCT-116, 48 h
HOP-62 = experiment: Anticancer activity against Homo sapiens (human) HOP62 cells assessed as cell growth promotion at 10 uM after 48 hr by SRB assay
SR = experiment: Anticancer activity against Homo sapiens (human) SR cells assessed as cell growth promotion at 10 uM after 48 hr by SRB assay
OVCAR-8 [4] = experiment: Anticancer activity against Homo sapiens (human) OVCAR8 cells assessed as cell growth promotion at 10 uM after 48 hr by SRB assay
OVCAR-8 [5] = experiment: Anticancer activity against Homo sapiens (human) OVCAR8 cells after 48 hr by SRB assay; settings: OVCAR-8, 48 h
SNB-75 [6] = experiment: Anticancer activity against Homo sapiens (human) SNB75 cells after 48 hr by SRB assay; settings: SNB-75, 48 h
SN12C [7] = experiment: Anticancer activity against Homo sapiens (human) SN12C cells after 48 hr by SRB assay
HT-29 = experiment: Anticancer activity against Homo sapiens (human) HT-29 cells assessed as cell growth promotion at 10 uM after 48 hr by SRB assay
Hs-578T = experiment: Anticancer activity against Homo sapiens (human) Hs 578T cells assessed as cell growth promotion at 10 uM after 48 hr by SRB assay
Malme-3M [8] = experiment: Anticancer activity against Homo sapiens (human) MALME-3M cells assessed as cell growth promotion at 10 uM after 48 hr by SRB assay
786-0 [9] = experiment: Anticancer activity against Homo sapiens (human) 786-0 cells after 48 hr by SRB assay; settings: 786-0, 48 h
UACC-257 = experiment: Anticancer activity against Homo sapiens (human) UACC257 cells after 48 hr by SRB assay; settings: UACC-257, 48 h
K562 [10] = experiment: Anticancer activity against Homo sapiens (human) K562 cells assessed as cell growth promotion at 10 uM after 48 hr by SRB assay
NCI-H23 [11] = experiment: Anticancer activity against Homo sapiens (human) NCI-H23 cells after 48 hr by SRB assay; settings: NCI-H23, 48 h
SNB-75 [12] = experiment: Anticancer activity against Homo sapiens (human) SNB75 cells assessed as cell growth promotion at 10 uM after 48 hr by SRB assay
A549 [13] = experiment: Anticancer activity against Homo sapiens (human) A549/ATCC cells assessed as cell growth promotion at 10 uM after 48 hr by SRB assay
SF-539 = experiment: Anticancer activity against Homo sapiens (human) SF539 cells assessed as cell growth promotion at 10 uM after 48 hr by SRB assay
NCI-H23 [14] = experiment: Anticancer activity against Homo sapiens (human) NCI-H23 cells assessed as cell growth promotion at 10 uM after 48 hr by SRB assay
T47D = experiment: Anticancer activity against Homo sapiens (human) T47D cells assessed as cell growth promotion at 10 uM after 48 hr by SRB assay
786-0 [15] = experiment: Anticancer activity against Homo sapiens (human) 786-0 cells assessed as cell growth promotion at 10 uM after 48 hr by SRB assay
NCI/ADR-RES = experiment: Anticancer activity against Homo sapiens (human) NCI/ADR-RES cells assessed as cell growth promotion at 10 uM after 48 hr by SRB assay
LOX IMVI = experiment: Anticancer activity against Homo sapiens (human) LOXIMVI cells after 48 hr by SRB assay
M14 = experiment: Anticancer activity against Homo sapiens (human) M14 cells assessed as cell growth promotion at 10 uM after 48 hr by SRB assay
UO-31 = experiment: Anticancer activity against Homo sapiens (human) UO31 cells after 48 hr by SRB assay; settings: UO-31, 48 h
UACC-62 = experiment: Anticancer activity against Homo sapiens (human) UACC62 cells after 48 hr by SRB assay; settings: UACC-62, 48 h
BT-549 = experiment: Anticancer activity against Homo sapiens (human) BT549 cells after 48 hr by SRB assay; settings: BT-549, 48 h
KM12 = experiment: Anticancer activity against Homo sapiens (human) KM12 cells assessed as cell growth promotion at 10 uM after 48 hr by SRB assay
HCT-116 [16] = experiment: Anticancer activity against Homo sapiens (human) HCT116 cells assessed as cell growth promotion at 10 uM after 48 hr by SRB assay
A549 [17] = experiment: Anticancer activity against Homo sapiens (human) A549/ATCC cells after 48 hr by SRB assay; settings: A549, 48 h
SW-620 = experiment: Anticancer activity against Homo sapiens (human) SW620 cells after 48 hr by SRB assay; settings: SW-620, 48 h
SN12C [18] = experiment: Anticancer activity against Homo sapiens (human) SN12C cells assessed as cell growth promotion at 10 uM after 48 hr by SRB assay
EKVX = experiment: Anticancer activity against Homo sapiens (human) EKVX cells after 48 hr by SRB assay
HCC 2998 = experiment: Anticancer activity against Homo sapiens (human) HCC2998 cells assessed as cell growth promotion at 10 uM after 48 hr by SRB assay
[19] = read-out: LC50 (the source's name)

Structure (SMILES): Cc1nc(SCC(=O)Nc2nc(-c3ccc(Cl)cc3)cs2)n(Nc2ccccc2)c1C
- GI50 (A498): 2.24 µM
- LC50 (A498): 35.8 µM
- TGI (A498): 10.5 µM
- GI50 (Malme-3M [1]): 10.8 µM
- TGI (Malme-3M [1]): 37.6 µM
- CC50 (Malme-3M [1]; [19]): > 100 µM
- GI50 (K562 [2]): 0.12 µM
- TGI (K562 [2]): > 100 µM
- CC50 (K562 [2]; [19]): > 100 µM
- GI50 (HCT-116 [3]): 1.84 µM
- LC50 (HCT-116 [3]): 15.5 µM
- TGI (HCT-116 [3]): 4.62 µM
- Activity (HOP-62): 48.49%
- Activity (SR): 12.66%
- Activity (OVCAR-8 [4]): 31.91%
- GI50 (OVCAR-8 [5]): 2.71 µM
- TGI (OVCAR-8 [5]): 7.73 µM
- CC50 (OVCAR-8 [5]; [19]): 38.9 µM
- GI50 (SNB-75 [6]): 3.48 µM
- LC50 (SNB-75 [6]): 49.3 µM
- TGI (SNB-75 [6]): 16.2 µM
- GI50 (SN12C [7]): 2.38 µM
- LC50 (concentration killing 50% of cells) (SN12C [7]): 35.8 µM
- TGI (SN12C [7]): 10.1 µM
- Activity (HT-29): 25.29%
- Activity (Hs-578T): 70.58%
- Activity (Malme-3M [8]): 99.3%
- GI50 (786-0 [9]): 3.6 µM
- LC50 (lethal concentration 50) (786-0 [9]): 38.9 µM
- TGI (786-0 [9]): 13.7 µM
- GI50 (UACC-257): 3.07 µM
- LC50 (UACC-257): > 100 µM
- TGI (UACC-257): 17 µM
- Activity (K562 [10]): 27.56%
- GI50 (NCI-H23 [11]): 1.85 µM
- TGI (NCI-H23 [11]): 6.02 µM
- CC50 (NCI-H23 [11]; [19]): 26.3 µM
- Activity (SNB-75 [12]): 39.12%
- Activity (A549 [13]): 28.85%
- Activity (SF-539): 35.42%
- Activity (NCI-H23 [14]): 12.2%
- Activity (T47D): 26.64%
- Activity (786-0 [15]): 54.27%
- Activity (NCI/ADR-RES): 20.41%
- GI50 (LOX IMVI): 1.78 µM
- LC50 (50% lethal concentration) (LOX IMVI): 7.79 µM
- TGI (LOX IMVI): 3.72 µM
- Activity (M14): 47.55%
- GI50 (UO-31): 3.59 µM
- TGI (UO-31): 37.7 µM
- CC50 (UO-31; [19]): > 100 µM
- GI50 (UACC-62): 3.09 µM
- LC50 (UACC-62): 50.3 µM
- TGI (UACC-62): 16.1 µM
- GI50 (BT-549): 7.02 µM
- LC50 (BT-549): 51.8 µM
- TGI (BT-549): 20.9 µM
- Activity (KM12): 57.14%
- Activity (HCT-116 [16]): 29.45%
- GI50 (A549 [17]): 2.9 µM
- LC50 (A549 [17]): 40.1 µM
- TGI (A549 [17]): 11.6 µM
- GI50 (SW-620): 5.5 µM
- LC50 (concentration killing 50% of cells) (SW-620): 74.6 µM
- TGI (SW-620): 22.9 µM
- Activity (SN12C [18]): 39.25%
- GI50 (EKVX): 1.84 µM
- TGI (EKVX): 12.2 µM
- CC50 (EKVX; [19]): 94.1 µM
- Activity (HCC 2998): 69.51%
